This is an account of results in PMC2074783, “Metabolism and pharmacokinetics of the anti-tumour agent 2,3,5-trimethyl-6-(3-pyridylmethyl)1,4-benzoquinone (CV-6504)” (British Journal of Cancer, 1996).

Data set [1] relates to MAC13 tumour. In words: Growth of the MAC13 tumour in vivo. Set-up: species or system NMRI mice. To be noted: 50 mg kg-1 daily p.o.; for Anti-tumour activity in comparison with the 1-glucuronide and 4-sulphate: MAC13 tumour, difference not significant. The source says: (§1) Bridsh Journal of Cancer (1996) 74, 1349-1353 ? 1996 Stockton Press All rights reserved 0007-0920/96 $12.00 Metabolism and pharmacokinetics of the anti-tumour agent 2,3,5- trimethyl-6-(3-pyridylmethyl) 1,4-benzoquinone (CV-6504) H J Hussey and M J Tisdale Pharmaceutical Sciences Institute, Aston University, Birmingham B4 7ET, UK. Summary 2,3,5-Trimethyl-6-(3-pyridylmethyl)1,4-benzoquinone (CV-6504) is an effective inhibitor of the growth of established murine adenocarcinomas (MACs) and is shortly to enter clinical investigation. When administered to mice bearing the MAC16 tumour, CV-6504 rapidly disappeared from the plasma and tissues and there was an accumulation of the sulphate and glucuronide metabolites. […] The concentration of glucuronide and sulphate metabolites in both tumour and liver decreased with time. […] Although the sulphate and glucuronide conjugates of CV-6504 were ineffective inhibitors of the growth of MAC13 cells in vitro at concentrations up to 100 µM, in vivo at a concentration of 50 mg kg-' day-' the conjugates produced a similar anti-tumour effect to CV-6504 at a concentration of 5 mg kg-} day-l. […] Using MAC13 cells ex vivo, CV-6504 inhibited conversion of arachidonic acid to 5-, 12- and 15- hydroxyeicosatetraenoic acids (HETE). The percentage reduction in formation of 12- and 15-HETE exceeded that of 5-HETE. Inhibition of HETE formation may be responsible for the anti-tumour activity of CV-6504. […] Our own studies have identified the 5-lipoxygenase inhibitor (Ohkawa et al., 1991a), 2,3,5-trimethyl-6-(3-pyridyl- methyl)1,4-benzoquinone (CV-6504), as an effective inhibitor of the growth of established murine adenocarcinomas (MAC) in vivo with a therapeutic index of at least 10 (Hussey et al., 1996). […] CV-6504 undergoes rapid reduction by two-electron donating enzymes, such as DT-diaphorase, and the resulting hydroquinone inhibits both 5-lipoxygenase activity and lipid peroxidation on the basis of its antioxidant ability (Ohkawa et al., 199 lb) by reducing the ferric iron in the active site of the enzyme to the ferrous (resting state). Studies on the metabolism of CV-6504 by mice, rats, dogs and monkeys indicate reduction of the quinone ring and subsequent conjugation to yield the 1- and 4-glucuronides and the corresponding sulphates (Takeda Chemical Co., personal communication). […] In the present study the tumour and tissue levels of CV- Correspondence: HJ Hussey Received 4 March 1996; revised 21 May 1996; accepted 29 May 1996 6504 and its glucuronide and sulphate metabolites have been determined after single and consecutive dosing of mice bearing the MAC16 adenocarcinoma. A comparison has also been made between CV-6504 and its glucuronide and sulphate metabolites on tumour growth and metabolism of AA along the lipoxygenase pathways with a view to establishing the mechanism of the anti-tumour effect. Material and methods Pure strain NMRI mice were obtained from our own breeding colony and were fed a rat and mouse breeding diet (Pilsbury's, Birmingham) and water ad libitum. Male animals weighing 20-25 g were transplanted subcutaneously with 1-2 mm3 fragments of the MAC16 or MAC13 tumours by trocar into the right flank. The experiments were initiated when the tumour volume, calculated from the formula: length x (width)2 2 was between 72 and 128 mm3. Tumour dimensions were measured by calipers. Mice bearing the MAC13 tumour were subject to restricted randomisation into groups of nine to receive either CV-6504 (5 mg kg-') or the 1- or 4- glucuronide, or the 1- or 4-sulphate (50 mg kg-'). CV-6504 and the sulphate and glucuronide metabolites were supplied by Takeda Chemical Industries Ltd., Osaka, Japan and were administered p.o. daily in aqueous solution (0.1 ml). Control animals received water alone (0.1 ml). […]

Data set [2] relates to MAC13 cells. The data set is described as follows: Growth of MAC13 cells in vitro after 72 h. Type of data set: cell-based, murine. The note with it: for Inhibition of the growth of MAC13 cells in vitro: concentrations up to 100 µM, 72 h.
Excerpt: as §1, with “calipers.” for “calipers. Mice bearing the MAC13 tumour were subject to restricted randomisation into groups of nine to receive either CV-6504 (5 mg kg-') or the 1- or 4- glucuronide, or the 1- or 4-sulphate (50 mg kg-'). CV-6504 and the sulphate and glucuronide metabolites were supplied by Takeda Chemical Industries Ltd., Osaka, Japan and were administered p.o. daily in aqueous solution (0.1 ml). Control animals received water alone (0.1 ml).”

The test system of data set [3] is conversion of arachidonic acid to HETEs in MAC13 cells. The data set is described as follows: Lipoxygenase metabolites of arachidonate in MAC13 tumour cells ex vivo. Type of data set: cell-based, murine.
Excerpt: as §1

Data set [4] can be described thus: Metabolism and tissue levels of [14C]CV-6504 in mice bearing the MAC16 tumour. To be noted: male, NMRI, mouse, in vivo, 24 h. The source says:
Bridsh Journal of Cancer (1996) 74, 1349-1353 ? 1996 Stockton Press All rights reserved 0007-0920/96 $12.00 Metabolism and pharmacokinetics of the anti-tumour agent 2,3,5- trimethyl-6-(3-pyridylmethyl) 1,4-benzoquinone (CV-6504) H J Hussey and M J Tisdale Pharmaceutical Sciences Institute, Aston University, Birmingham B4 7ET, UK. Summary 2,3,5-Trimethyl-6-(3-pyridylmethyl)1,4-benzoquinone (CV-6504) is an effective inhibitor of the growth of established murine adenocarcinomas (MACs) and is shortly to enter clinical investigation. When administered to mice bearing the MAC16 tumour, CV-6504 rapidly disappeared from the plasma and tissues and there was an accumulation of the sulphate and glucuronide metabolites. […] The concentration of glucuronide and sulphate metabolites in both tumour and liver decreased with time. […] In the present study the tumour and tissue levels of CV- Correspondence: HJ Hussey Received 4 March 1996; revised 21 May 1996; accepted 29 May 1996 6504 and its glucuronide and sulphate metabolites have been determined after single and consecutive dosing of mice bearing the MAC16 adenocarcinoma. […] The experiments were initiated when the tumour volume, calculated from the formula: length x (width)2 2 was between 72 and 128 mm3. Tumour dimensions were measured by calipers. […]

Data set [5] has as its system MAC16 cells. The data set is described as follows: Inhibition of the growth of MAC16 cells in vitro. It is filed as cell-based, murine. To be noted: Mus musculus, tissue culture.

For the molecule `Cc1c(C)c(OS(=O)(=O)O)c(C)c(Cc2cccnc2)c1O` [4-sulphate], in data set [1], the “Anti-tumour activity against MAC13 tumour in vivo compared with free CV-6504 at 5 mg kg-1 day-1 orally” value is “similar”. Besides, the “Inhibition of the growth of MAC13 cells in vitro” value (“Inhibition” below) in data set [2] is recorded as “ineffective”.
For the molecule `Cc1c(C)c(OC2OC(C(=O)O)C(O)C(O)C2O)c(C)c(Cc2cccnc2)c1O` (stereo not shown) [CV-6504-4-glucuronide], in data set [1], the “Anti-tumour activity against MAC13 tumour in vivo compared with free CV-6504 at 5 mg kg-1 day-1 orally” value is on record as “similar”; the “Anti-tumour activity in comparison with the 1-glucuronide and 4-sulphate” value is reported as “slightly reduced”. In addition, in data set [3] (100 µM, 30 min), the 5-HETE production result is listed as “significantly reduced”, the 11-HETE production entry was “significantly reduced” and the 12-HETE production result is reported as “significantly reduced”. In addition, in data set [3] (100 µM, 1 h), the 15-HETE production result is recorded as “significantly reduced”. Also, the “Inhibition” value in data set [2] is “ineffective”.
Take `Cc1c(C)c(OS(=O)(=O)O)c(Cc2cccnc2)c(C)c1O` [CV-6504-1-sulphate]: in data set [1], the “Anti-tumour activity against MAC13 tumour in vivo compared with free CV-6504 at 5 mg kg-1 day-1 orally” value is “similar”; the “Anti-tumour activity in comparison with the 1-glucuronide and 4-sulphate” value is reported as “slightly reduced”. Also, in data set [3] (100 µM, 30 min), the 12-HETE production entry is listed as “significantly reduced” and the 15-HETE production result is recorded as “significantly reduced”. For the same molecule, in data set [3] (100 µM, 1 h), the 11-HETE production entry is listed as “significantly reduced”. The 5-HETE production result in data set [3] (100 µM, 2 h) is “significantly reduced”. The “Inhibition” value in data set [2] was “ineffective”.
In the case of `CC1=C(C)C(=O)C(Cc2cccnc2)=C(C)C1=O` [CV-6504, 2,3,5-Trimethyl-6-(3-pyridylmethyl)1,4-benzoquinone], in data set [4], the “concentration of free CV-6504 in the liver” value was found to be 240 nM and the “concentration of free CV-6504 in the tumour” value amounted to 3300 nM. The “percentage reduction in formation of 12- and 15-HETE relative to that of 5-HETE” value in data set [3] (10 µM, 30 min) was “exceeded”. In data set [3] (10 µM, 30 min, [3H]AA), the 5-HETE production entry is given as “significantly decreased”, the 11-HETE production entry was “significantly decreased”, the 12-HETE production result is on record as “significantly decreased” and the 15-HETE production result is “significantly decreased”. Further, in data set [3] (10 µM, 30 min, [3H]AA), the “total unmetabolised AA” value is “significantly decreased”. In addition, the IC50 (in general, the concentration needed to halve the response being measured) in data set [2] (Mus musculus, MAC13, 72 h, read-out: IC50 for inhibition of growth of MAC13 cells in vitro) is 3 µM. This molecule came in with an IC50 in data set [5] of 3 µM.
Regarding `Cc1c(C)c(OC2OC(C(=O)O)C(O)C(O)C2O)c(Cc2cccnc2)c(C)c1O` (stereo not shown) [CV-6504-1-glucuronide], the “Anti-tumour activity against MAC13 tumour in vivo compared with free CV-6504 at 5 mg kg-1 day-1 orally” value in data set [1] was “similar”. Also, the “Inhibition” value in data set [2] was “ineffective”.
